From PMC11391541, “Target-Directed Dynamic Combinatorial Chemistry Affords Binders of Mycobacterium tuberculosis IspE” (ACS Omega, 2024)
Converted amounts (≈) assume the structure as drawn. “And” between values parts separate entries of the source, which are not always exact repeats. Identical values can stand only once.

What was measured:
[1] = target: T1, MtbIspE (Mycobacterium tuberculosis, UniProt P9WKG7); test: target-directed dynamic combinatorial chemistry (tdDCC), amplification of acylhydrazones in protein-templated vs blank DCL (HPLC-MS/MS, UV 310 nm); format: binding; conditions: for Amplification factors (DCL-4): DCL-4, 24 h; for Amplification factors (DCL-4) / Amplification factors (DCL-3): 40 mol % MtbIspE; for Amplification factors (DCL-3): DCL-3, 24 h, I1 and K1 integrated as one cluster
Experimental: In this study, we used MtbIspE as target protein and the reversible reaction of hydrazides and aldehydes to form dynamic combinatorial libraries (DCLs) of acylhydrazones. […] To accelerate the reaction at neutral pH, aniline was used as nucleophilic catalyst activating the aldehydes.[2],[4],[19] We analyzed the protein’s effect on the DCLs by comparing HPLC-MS/MS data of blank vs protein-templated (PT) experiments. The experiments spanned 3 days, with periodic sampling (every 2 h, followed by two samples per day after 8 h). The addition of NaOH to raise the pH and halt the reactions ensured the sample composition was preserved for analysis.[19] Templated experiments were conducted in duplicate, and the protein was denatured and removed prior to HPLC-MS/MS analysis.
The tdDCC hits and thus potential MtbIspE binders are amplified in the PT experiment compared to the blank experiment. The first step in the analysis of DCLs is the determination of the equilibrium since the amplification factors need to be calculated when the concentration of products is stable. To determine the evolution of the possible products, it is important to measure the characteristic UV absorbance of the acylhydrazones linker (310 nm) during the HPLC-MS/MS run. The resulting UV peaks are assigned to each product using the MS data (Figures S3–S6). The sum of all peak areas is normalized to 100% in order to obtain the respective relative peak area (RPA) for each product. The RPA values represent relative concentrations, determined at each time point of the blank experiment until the values stabilize. […] However, the rest of the compounds are out of range, making a visual inspection difficult. […] The other three libraries behaved in the same way, reaching equilibrium within 24 h and also maintained stable concentrations beyond (Figures S7–S9). To determine the tdDCC hits, we compared the RPAs of the PT experiments to the blanks at 24 h and set a threshold of at least 50% increase in compound formation. In total, 11 acylhydrazones passed our criteria, with amplification factors ranging from […] to 15.5, qualifying them for resynthesis and further evaluation (Figure 3). During the analysis of chromatograms, challenges arose concerning product identification. Some compound peaks were not neatly separated, forcing us to consider them in clusters, others presented two peaks, likely due to isomers, and were considered separately in our evaluation. Lastly, some compounds were detected by MS, but their respective UV signal interfered with the injection peak or was too low for integration (<1%), both in the blank and PT experiments. Consequently, we excluded these compounds from the analysis (Figure S3–S6).
To a well of a 24-well plate, containing Tris buffer (pH 7.0) were added hydrazides (300 μM each, in DMSO), aldehydes (100 μM each, in DMSO), aniline (20 mM, in DMSO), the protein MtbIspE (25 or 40 μM in Tris buffer at pH 7.0), and an additional amount of DMSO to reach a final concentration of 5% in the DCL with 0.5 mL of end-volume. The DCL was allowed to mix on a plate shaker at room temperature and was frequently monitored via LCMS-MS. For analysis, 30 μL of the corresponding library was mixed with 42 μL acetonitrile and 3 μL of NaOH (1 M), the mixture was centrifuged, and the supernatant was used for the analysis. PT experiments were run in duplicates and the protein was omitted for the blank experiments.
High-resolution mass (HRMS) of final products was determined by HPLC-MS/MS using a Thermo Scientific Q Exactive Focus Orbitrap LC -MS/MS system. All compounds were analyzed for purity by LCMS on Acquity UPLC-SQD system from Waters with a gradient elution of Water (Formic acid 0.1%)/Acetonitrile on an HSS - T3 column (2.1 x 50 mm, Waters), 1.8 µm, at 30°C, PDA detection between 240 -320 nm, and MS detection by simultaneous ES+/ES- ionization in a mass range of 150 -800. The flow is set to 0.9 ml/min, and the […]
gradient time is 1.5 min. […]

[2] = solubility in M. tuberculosis 7H9 growth medium; format: physicochemical; conditions: Mtb 7H9 growth medium; for solubility: M. tuberculosis 7H9 growth medium, plasma or biological fluid, kinetic from dmso stock
Experimental: Prior to biological evaluation of the tdDCC hits, we tested their solubility in a standard buffer as well as in M. tuberculosis 7H9 growth medium. […] Regrettably, with 3.3 μM the least soluble compound is E1, making our most amplified and promising compound unsuitable for biological evaluation. We assessed the solubility in Mtb growth medium given that it is a complex, nutrient-rich environment with a distinct solubility profile. However, the trend continued, only seven hits are soluble at 8 μM or above, the remaining five compounds, including E1, were not eligible for antitubercular activity testing (Table 1).
Determination of in vitro anti-tubercular activity and solubility in 7H9 medium Anti-tubercular tests were performed as previously described .1 In brief, 7H9 complete medium (BD Difco; Becton Dickinson, Maryland,USA) supplemented with 10% OADC (BD), 0.2% glycerol, and 0.05% Tween80 as previously described ,3 was used to culture Mycobacterium tuberculosis (Mtb) strain H37Rv (ATCC 25618) carrying a mCherry -expressing plasmid (pCherry10 ).4 Cultures were harvested at mid-log phase and frozen in aliquots at – 80 °C. Prior to testing aliquots were thawed followed by centrifugation and the pellet was resuspended in 7H9 medium with 10% OADC (without glycerol and Tween80). This was further thoroughly resuspended by passing it through a syringe with a 26 -gauge needle to avoid clumping of the bacteria. 2×10^5 CFU (colony forming units) were then cultured in a total volume of 100 μl culture medium (triplicates) to test the non-precipitating compounds for the anti-tubercular activity at the concentrations indicated. For these assays, 96-well flat clear bottom black polystyrene microplates (Corning® CellBIND®, Merck, New York, USA) wer e used. Each plate had Rifampicin (at 1 μg/ml and 0.1 μg/ml) (National Reference Center, Borstel) as a reference compound. Plates were sealed with an air -permeable membrane (Porvair Sciences, Wrexham, UK) in a 37 °C incubator with mild agitation (TiMix5, Edmund Bühler, Germany). The activity of compounds was determined after 7 days by measuring the bacterial growth as relative light units (RLU) from the fluorescence intensity obtained at an excitation wavelength of 575 nm and an emission wavelength of 635 n m in a microplate reader (Synergy 2, BioTek Instruments, Vermont, USA). Two independent experiments (each in triplicates) were performed, and all values were normalized to untreated control sample (100%) in each experiment.
To obtain information regarding the toxicity of our compounds, their impact on the viability of human cells was investigated. HepG2 cells (2x10^4 cells per well) were seeded in 96 -well, flat-bottomed culture plates in 100 µL culture medium (DMEM containing 10% fetal calve serum, 1% penicillin -streptomycin). Twenty-four hours after seeding the cells, medium was removed and replaced by medium containing test compounds in a final DMSO concentration of 1%. Compounds were tested in duplicates at a single concentration or, for CC50 determination, at 8 concentrations that were prepared via 2 -fold serial dilutions in 1% DMSO/medium. Epirubicin and doxorubicin were used as positive controls in serial dilutions starting from 10 µM, and rifampicin was used as a negative control (at 100 µM). The living cell mass was determined 48 h after treatment with compounds by adding 0.1 volumes of 3 -(4,5-dimethylthiazol-2-yl)-2,5-diphenyltetrazolium bromide (MTT) solution (5 mg/mL sterile PBS) (Sigma, St. Louis, MO) to the wells. After incubating the cells for 30 min at 37 °C (atmosphere containing 5% CO2), medium was removed and MTT crystals were dissolved in 75 µL of a solution containing 10% SDS and 0.5% acetic acid in DMSO. The optical density (OD) of the samples was determined photometrically at 570 nm in a PHERAstar Omega plate reader (BMG labtech, Ortenberg, Germany). To obtain percent viability for each sample, their ODs were related to those of DMSO controls. […]

[3] = target: T1, MtbIspE; test: MtbIspE binding study via MicroScale Thermophoresis (MST); conditions: MST, 20 μM ligand, 200 nM MtbIspE, triplicate; qualitative
[4] = system: EcTolC; test: microbe, parasite or virus in culture; format: cell-based; conditions: Escherichia coli, 18 h, LB medium, read-out: EcTolC %inh. At 50 μM
[5] = physchem; conditions: aqueous with cosolvent or surfactant or cyclodextrin, kinetic from dmso stock
[6] = in vitro; conditions: human, HepG2 CC50, HepG2, 48 h, MTT
[7] = target: T1, MtbIspE; test: MtbIspE binding study via thermal shift assay; conditions: read-out: MtbIspE ΔTm at 20 μM
[8] = system: MtbH37Rv; format: cell-based, Mycobacterium tuberculosis
[9] = system: EcK12; test: E. coli growth inhibition, wild-type strain K12; format: cell-based, Escherichia coli; conditions: Escherichia coli, 18 h, LB medium, read-out: EcK12 %inh. At 50 μM

T1 sequence (P9WKG7 whole entry): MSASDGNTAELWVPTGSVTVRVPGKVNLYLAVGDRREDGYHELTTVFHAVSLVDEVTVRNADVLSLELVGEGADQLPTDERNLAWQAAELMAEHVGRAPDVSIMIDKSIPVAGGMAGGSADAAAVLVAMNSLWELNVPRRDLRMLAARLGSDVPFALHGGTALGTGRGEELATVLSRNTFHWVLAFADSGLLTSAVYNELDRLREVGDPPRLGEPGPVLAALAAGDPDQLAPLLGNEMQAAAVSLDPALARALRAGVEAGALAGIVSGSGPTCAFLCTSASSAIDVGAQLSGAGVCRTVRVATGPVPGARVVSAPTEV

SMILES	Amplification factors (DCL-4) [1]	solubility in 7H9 [2]	MtbIspE binding at 20 μM [3]	inhibition at 50 µM [4]	solubility at 5 min ([5]; solubility 5% DMSO in PBS)	CC50 [6]	Amplification factors (DCL-3) [1]	solubility [2]	ΔTm at 20 µM [7]	MtbH37Rv MIC90 [8]	inhibition at 50 µM [9]	solubility at 5 min ([5]; solubility in PBS with 5% DMSO)	amplification factor (DCL-1 at 24 h) ([1]; DCL-1, 24 h, 25 mol % MtbIspE)
Nc1c(C(=O)N/N=C/c2ccc(C(F)(F)F)cc2)nnn1-c1cccc(C(F)(F)F)c1 [E4, (E)-5-Amino-N′-(4-(trifluoromethyl)benzylidene)-1-(3-(trifluoromethyl)phenyl)-1H-1,2,3-triazole-4-carbohydrazide]	0.7	insoluble	consistently demonstrated binding across all measurements and Yes	< 10%	12 ± 6 µM (≈ 5.31 µg/mL)	> 50 µM	–	–	–	–	–	–	–
COc1ccc(NC(=O)c2cc(C(=O)N/N=C/c3cc(Cl)ccc3O)n(C)n2)cc1OC [H1, (E)-5-(2-(5-Chloro-2-hydroxybenzylidene)hydrazine-1-carbonyl)-N-(3,4-dimethoxyphenyl)-1-methyl-1H-pyrazole-3-carboxamide]	–	–	No	< 10%	28 ± 6 µM (≈ 12.8 µg/mL)	32 ± 5 µM	7.8	32 µM	< 0.3 °C	no inh. at max. sol.	–	–	–
COc1ccc(-c2cc(/C=N/NC(=O)c3nnn(-c4cccc(C(F)(F)F)c4)c3N)no2)cc1 [E6, (E)-5-Amino-N′-((5-(4-methoxyphenyl)isoxazol-3-yl)methylene)-1-(3-(trifluoromethyl)phenyl)-1H-1,2,3-triazole-4-carbohydrazide]	2.3	insoluble	No	< 10%	29 ± 10 µM (≈ 13.7 µg/mL)	> 50 µM	–	–	0.7 °C	–	–	–	–
CN1CCN(CC(=O)N/N=C/c2cc(Cl)ccc2O)CC1 [C1, (E)-N′-(5-Chloro-2-hydroxybenzylidene)-2-(4-methylpiperazin-1-yl)acetohydrazide]	–	–	consistently demonstrated binding across all measurements and Yes	17.1 ± 0.1%	> 800 µM	> 50 µM	–	16 µM	< 0.3 °C	no inh. at max. sol.	< 10%	~1000 µM (≈ 311 µg/mL)	–
Nc1c(C(=O)N/N=C/c2cc(Cl)ccc2O)nnn1-c1cccc(C(F)(F)F)c1 [E1, (E)-5-Amino-N′-(5-chloro-2-hydroxybenzylidene)-1-(3-(trifluoromethyl)phenyl)-1H-1,2,3-triazole-4-carbohydrazide]	–	insoluble	–	< 10%	3.3 ± 1 µM (≈ 1.4 µg/mL)	> 50 µM	–	–	–	–	–	–	0.5
COc1ccc(-c2cc(/C=N/NC(=O)Cn3nc(C)cc3C)no2)cc1 [B6, (E)-2-(3,5-Dimethyl-1H-pyrazol-1-yl)-N′-((5-(4-methoxyphenyl)isoxazol-3-yl)methylene)acetohydrazide]	0.9	–	bound in two out of three measurements and 2/3	< 10%	65 ± 35 µM (≈ 23 µg/mL)	> 50 µM	–	16 µM	< 0.3 °C	no inh. at max. sol.	–	–	–
O=C(N/N=C/c1cc(Cl)ccc1O)C12CC3CC(C1)CC(n1cnc(Cl)n1)(C3)C2 [I1, (1R,3S,5R,7S)-3-(3-Chloro-1H-1,2,4-triazol-1-yl)-N′-((Z)-5-chloro-2-hydroxybenzylidene)adamantane-1-carbohydrazide]	–	–	–	33 ± 3%	8 ± 4 µM (≈ 3.47 µg/mL)	–	2.0	64 µM	–	no inh. at max. sol.	< 10%	–	–
